From patent publication US20030215462A1, “Use of UGT inhibitors to increase bioavailability” (priority 2001, published 2003)
Values after ≈ are worked out from the molar mass of the structure shown. Values joined by “and” are separate entries in the source; they are usually repeats but may differ in a detail not shown here. Equal values may be shown once.

What was measured:
human liver microsomes [1] = assay: Glucuronidation of UGT substrates by human liver microsomes; settings: for substrate loss, 2ME2: 2ME2 50 μM
[2] = tested on: pooled human jejunum microsomes; assay: Glucuronidation of UGT substrates by pooled human jejunum microsomes; settings: jejunum HJ61, 50 μg/ml; 2ME2 50 μM
[3] = target: T1, UGT enzymes of human liver microsomes (Homo sapiens, UniProt P16662); assay: Inhibition of zidovudine glucuronidation in human liver microsomes; format: biochemical; settings: liver lot 062101
T1 construct: residual metabolism (percentage of control), zidovudine glucuronidation; other: liver lot 062101; residual metabolism (percentage of control), zidovudine glucuronidation; residual metabolism (percentage of control)
T1 sequence (P16662 1-529): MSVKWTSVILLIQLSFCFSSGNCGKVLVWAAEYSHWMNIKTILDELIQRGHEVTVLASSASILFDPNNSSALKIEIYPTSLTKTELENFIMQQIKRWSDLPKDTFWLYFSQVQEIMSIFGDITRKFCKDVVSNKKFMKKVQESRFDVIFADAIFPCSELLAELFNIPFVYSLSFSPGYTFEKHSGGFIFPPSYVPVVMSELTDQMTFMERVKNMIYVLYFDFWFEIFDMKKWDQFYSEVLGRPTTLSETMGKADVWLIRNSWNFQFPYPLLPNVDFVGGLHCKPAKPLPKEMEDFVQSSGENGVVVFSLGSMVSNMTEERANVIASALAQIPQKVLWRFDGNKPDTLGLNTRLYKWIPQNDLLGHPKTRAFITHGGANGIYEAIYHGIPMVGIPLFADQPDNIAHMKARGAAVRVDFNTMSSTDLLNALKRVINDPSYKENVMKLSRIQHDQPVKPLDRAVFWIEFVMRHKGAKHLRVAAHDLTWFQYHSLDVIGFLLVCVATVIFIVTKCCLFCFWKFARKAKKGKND
Method: Compounds were eluted using a binary solvent gradient system where solvent A was dilute phosphoric acid (pH 3) and solvent B was acetonitrile.
Standardized incubations utilized 500 μM zidovudine substrate, 1 mg/ml microsomal protein, 5 mM UDPGA and a 30 min incubation time. […] Int.

[4] = tested on: UGT enzymes of human liver microsomes; assay: Inhibition of 2ME2 glucuronidation (MG1, MG2) in human liver microsomes; format: biochemical; settings: liver 062101, 2ME2 50 μM
From the text: (§1) Compounds were eluted using a binary solvent gradient system where solvent A was dilute phosphoric acid (pH 3) and solvent B was 80:20 acetonitrile-methanol. […] Detection was at 280 nm.

[5] = tested on: T2, UGT enzymes of human liver microsomes; assay: as above; format: biochemical; settings: liver 062101, 2ME2 50 μM
T2 construct: other: liver 062101
From the text: as §1

[6] = tested on: UGT enzymes of pooled human jejunum microsomes; assay: Inhibition of 2ME2 glucuronidation (MG1) in pooled human jejunum microsomes; format: biochemical; settings: jejunum HJ61, 2ME2 50 μM
From the text: as §1

in vivo = settings: female, Sprague-Dawley, rat, po, 10 mg/kg
Method: Female Sprague-Dawley rats (220-250 g body weight) with cannulae inserted into the jugular vein were purchased from Hilltop Animals Inc. (Scottsdale, Pa.). Catheter patency was maintained using a heparin lock. Animals were individually housed at 18-26° C. and allowed free movement and access to water. Rats were fed standard Laboratory Rodent Diet during a minimum 1-day acclimatization period but were fasted from at least 8 h prior to dose administration and were not administered food throughout the study.
Immediately prior to treatment, the ethanol was removed by nitrogen evaporation and rats were administered 1 ml/kg of each emulsion using a standard gavage needle. […] Blood volume was replaced with saline after each sample. Whole blood samples were collected in Microtainer® tubes (Becton-Dickinson, Franklin Lakes, N.J.) containing sodium EDTA anti-coagulant. Erythrocytes were precipitated by centrifugation (2800 rpm×10-20 min) and plasma samples were stored in the freezer prior to extraction and analysis.
Plasma samples (100 μl) were extracted by vortex mixing for 60 sec with 200 μl extraction solvent (80% acetonitrile 20% 2 mM NH4OAc pH 9) and 20 μl internal standard solution (1 μM tamoxifen in methanol). […] The lower limit of quantitation was 2 ng/ml.

[7] = Solubility in microsomal incubation mixtures
[8] = tested on: T3, UGT enzymes of human liver microsomes; assay: Inhibition of 7-HFC glucuronidation in human liver microsomes; format: biochemical; settings: inhibitor 500 μM; 7-HFC 50 μM, human liver microsomes 100 μg/ml, 15 min
T3 construct: percentage of control metabolism, 7-HFC glucuronidation; percentage of control metabolism, 7-HFC glucuronidation

[9] = tested on: UGT enzymes of human liver microsomes; assay: Inhibition of raloxifene glucuronidation (G1, G2) in human liver microsomes; format: biochemical
From the text: Compounds were eluted using a binary solvent gradient system. […] Solvent B was methanol. […] Detection was at 280 nm.

human liver microsomes [10] = settings: cited from earlier work
[11] = humans; cited from earlier work

## COc1cc2c(cc1O)CC[C@@H]1[C@@H]2CC[C@]2(C)[C@@H](O)CC[C@@H]12 [2ME2, 2-Methoxyestradiol]
cytochrome(s) P450
  NADPH-dependent metabolism, in words: Negligible NADPH-dependent metabolism
Human liver microsomes [1]; 50 μM substrate
  total loss of 2ME2 from liver microsomal incubation after 60 min: 42%
Human liver microsomes [1]; liver lot 032101, 250 μg/ml
  substrate loss, 2ME2: 1,573 ± 243 pmol/min/mg
Human liver microsomes [1]; liver lot 062101, 250 μg/ml
  substrate loss, 2ME2: 1,035 ± 52 pmol/min/mg
[2]
  substrate loss, 2ME2: 19,797 ± 631 pmol/min/mg

## O=C(c1ccc(OCCN2CCCCC2)cc1)c1c(-c2ccc(O)cc2)sc2cc(O)ccc12 [Raloxifene, raloxifene, reference compound]
[3]; inhibitor 100 μM
  residual metabolism (percentage of control), zidovudine glucuronidation: 76 (3) %
[3]; inhibitor 200 μM
  residual metabolism (percentage of control), zidovudine glucuronidation: 32 (4) %
[4]; inhibitor 5 μM
  residual metabolism (% of control), 2ME2 MG1: 77 (1) %
  residual metabolism (% of control), 2ME2 MG2: 98 (1) %
[4]; inhibitor 10 μM
  residual metabolism (% of control), 2ME2 MG1: 63 (1) %
  residual metabolism (% of control), 2ME2 MG2: 88 (0) %
[5]; inhibitor 25 μM
  residual metabolism (% of control), 2ME2 MG1: 42 (0) %
  residual metabolism (% of control), 2ME2 MG2: 70 (0) %
[5]; inhibitor 50 μM
  residual metabolism (% of control), 2ME2 MG1: 32 (2) %
  residual metabolism (% of control), 2ME2 MG2: 41 (2) %
[5]; inhibitor 100 μM
  residual metabolism (% of control), 2ME2 MG1: 24 (2) %
  residual metabolism (% of control), 2ME2 MG2: 20 (1) %
[6]; inhibitor 5 μM
  residual metabolism (% of control), 2ME2 MG1: 73 (1) %
[6]; inhibitor 10 μM
  residual metabolism (% of control), 2ME2 MG1: 58 (1) %
[6]; inhibitor 25 μM
  residual metabolism (% of control), 2ME2 MG1: 31 (3) %
[6]; inhibitor 50 μM
  residual metabolism (% of control), 2ME2 MG1: 17 (0) %
[6]; inhibitor 100 μM
  residual metabolism (% of control), 2ME2 MG1: 12 (0) %
In vivo; Raloxifene AUC0-8
  AUC(0-t): 77 ± 61 ng·h/mL
In vivo; Raloxifene AUC0-24
  AUC(0-t): 114 ± 90 ng·h/mL
[7]; 500 μM
  solubility in the microsomal incubation: insoluble
[7]; microsomal incubation mixtures
  solubility: 100 µM (≈ 47.4 µg/mL)

## Cc1cn([C@H]2C[C@H](N=[N+]=[N-])[C@@H](CO)O2)c(=O)[nH]c1=O [Zidovudine, zidovudine, reference compound]
[8]
  % of control metabolism (SD, n = 3), 7-HFC glucuronidation: 99 (1) %
[9]
  % of control metabolism (SD, n = 3), raloxifene glucuronide G1: 93 (3) %
  % of control metabolism (SD, n = 3), raloxifene glucuronide G2: 93 (1) %
Human liver microsomes [10]
  Km: 3000 to 5000 µM
[11]
  absolute oral bioavailability: 65% and 52-75%
